Source: ChEMBL document CHEMBL1914342, “Synthesis and in vitro EGFR (ErbB1) tyrosine kinase inhibitory activity of 4-N-substituted 6-aryl-7H-pyrrolo[2,3-d]pyrimidine-4-amines” (Eur J Med Chem, 2011)
Activity calls are given as the source filed them. No cut-off for these calls is given here.

Assays:
[1] = target: T1, Epidermal growth factor receptor (Homo sapiens, UniProt P00533); experiment: Inhibition of EGFR by Z-LYTE assay
[2] = target: T1, Epidermal growth factor receptor; experiment: Inhibition of EGF-induced EGFR internalization in human HeLa cells assessed as subcellular localization of receptor at 500 nM measured after 15 to 20 mins post receptor activation by immunostaining-based confocal microscopy analysis; assay type: cell-based

T1 sequence (P00533 whole entry): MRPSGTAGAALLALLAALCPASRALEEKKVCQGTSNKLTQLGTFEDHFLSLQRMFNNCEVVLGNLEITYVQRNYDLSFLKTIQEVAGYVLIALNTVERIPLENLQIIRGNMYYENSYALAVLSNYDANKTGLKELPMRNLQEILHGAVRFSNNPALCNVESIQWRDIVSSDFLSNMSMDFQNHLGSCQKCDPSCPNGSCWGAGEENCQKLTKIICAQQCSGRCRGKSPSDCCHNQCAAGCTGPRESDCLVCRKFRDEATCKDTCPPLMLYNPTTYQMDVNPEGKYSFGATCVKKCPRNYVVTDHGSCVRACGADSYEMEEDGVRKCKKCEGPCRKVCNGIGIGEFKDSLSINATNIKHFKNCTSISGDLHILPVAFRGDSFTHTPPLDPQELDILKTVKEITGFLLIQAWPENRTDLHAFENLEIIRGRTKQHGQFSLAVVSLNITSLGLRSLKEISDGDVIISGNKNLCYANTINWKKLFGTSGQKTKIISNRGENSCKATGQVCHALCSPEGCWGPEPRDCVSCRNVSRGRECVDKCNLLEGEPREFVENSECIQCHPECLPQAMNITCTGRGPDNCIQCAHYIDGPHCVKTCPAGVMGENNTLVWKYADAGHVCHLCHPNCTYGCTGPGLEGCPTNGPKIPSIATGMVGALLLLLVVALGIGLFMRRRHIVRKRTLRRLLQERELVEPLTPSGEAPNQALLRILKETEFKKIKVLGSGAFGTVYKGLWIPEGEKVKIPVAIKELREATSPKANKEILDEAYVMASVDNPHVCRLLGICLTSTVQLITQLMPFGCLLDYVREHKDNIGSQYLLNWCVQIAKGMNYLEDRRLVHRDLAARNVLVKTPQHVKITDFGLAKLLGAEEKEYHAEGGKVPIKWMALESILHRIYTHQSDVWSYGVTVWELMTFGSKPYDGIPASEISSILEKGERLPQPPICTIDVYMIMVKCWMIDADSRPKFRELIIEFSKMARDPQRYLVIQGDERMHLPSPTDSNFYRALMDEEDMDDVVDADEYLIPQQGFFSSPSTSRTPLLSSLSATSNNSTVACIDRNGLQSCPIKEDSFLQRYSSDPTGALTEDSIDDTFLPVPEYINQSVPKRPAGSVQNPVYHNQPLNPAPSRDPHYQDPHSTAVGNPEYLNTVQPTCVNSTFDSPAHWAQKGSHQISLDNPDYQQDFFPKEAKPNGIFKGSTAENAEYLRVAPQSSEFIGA

SMILES	IC50 [1] [nM]	inhibition [2]
C[C@@H](Nc1ncnc2[nH]c(-c3ccc(O)cc3)cc12)c1ccc(F)cc1	3.8	–
C[C@@H](Nc1ncnc2[nH]c(-c3ccc(O)cc3)cc12)c1ccccc1	3.7	inactive
Oc1ccc(-c2cc3c(NCc4ccccc4F)ncnc3[nH]2)cc1	45	–
CC(Nc1ncnc2[nH]c(-c3ccc(O)cc3)cc12)c1ccc(C(F)(F)F)cc1 (racemic)	4610	–
Oc1ccc(-c2cc3c(NCc4cccc(F)c4)ncnc3[nH]2)cc1	52	–
CC(Nc1ncnc2[nH]c(-c3ccc(O)cc3)cc12)c1cccc2ccccc12 (racemic)	1010	–
C[C@@H](Nc1ncnc2[nH]c(-c3ccc(C#N)cc3)cc12)c1ccccc1	12	–
Cc1cccc(C(C)Nc2ncnc3[nH]c(-c4ccc(O)cc4)cc23)c1 (racemic)	95	–
C[C@@H](Nc1ncnc2[nH]c(-c3ccc(F)cc3)cc12)c1ccc(F)cc1	27	–
Oc1ccc(-c2cc3c(NCc4ccccc4)ncnc3[nH]2)cc1	3.3	–
Oc1ccc(-c2cc3c(NCc4ccc(F)cc4)ncnc3[nH]2)cc1	26	–
C[C@@H](Nc1ncnc2[nH]c(-c3ccc(Br)cc3)cc12)c1ccccc1	63	–

Further molecules by falling IC50 [1], results first:

IC50 [1] [nM]	inhibition [2]	SMILES
450	–	Cc1ccc([C@@H](C)Nc2ncnc3[nH]c(-c4ccc(O)cc4)cc23)cc1
62	–	C[C@@H](Nc1ncnc2[nH]c(-c3ccc(O)cc3)cc12)c1ccc(Br)cc1
33	–	C[C@@H](Nc1ncnc2[nH]c(-c3ccccc3)cc12)c1ccc(F)cc1
29	–	C[C@@H](Nc1ncnc2[nH]c(-c3ccc(Br)cc3)cc12)c1ccc(F)cc1
17	–	Cc1ccccc1C(C)Nc1ncnc2[nH]c(-c3ccc(O)cc3)cc12 (racemic)
14	–	C[C@@H](Nc1ncnc2[nH]c(-c3ccc(C#N)cc3)cc12)c1ccc(F)cc1
9	–	C[C@@H](Nc1ncnc2[nH]c(-c3ccc(O)cc3)cc12)c1cccc(F)c1
8	–	C[C@@H](Nc1ncnc2[nH]c(-c3ccc(O)cc3)cc12)c1ccccc1F
6.6	–	C[C@@H](Nc1ncnc2[nH]c(-c3ccc(F)cc3)cc12)c1ccccc1
4.7	–	COc1ccc(-c2cc3c(N[C@H](C)c4ccccc4)ncnc3[nH]2)cc1
4	–	CC[C@@H](Nc1ncnc2[nH]c(-c3ccc(O)cc3)cc12)c1ccccc1
3.3	–	C[C@@H](Nc1nc[nH]c2nc(-c3ccccc3)cc1-2)c1ccccc1
